Test results reported in PMC6112376, “Comprehensive Analyses and Prioritization of Tox21 10K Chemicals Affecting Mitochondrial Function by in-Depth Mechanistic Studies” (Environmental Health Perspectives, 2018).
Read-outs that look alike come from different tables or passages of the source.

What was measured:
hNSC = assay: MMP assay in human neural stem cells (hNSC); type: cell-based; details: Homo sapiens, Neural stem cell, read-out: hNSC IC50 (MMP)
HepG2 cells [1] = assay: ROS-Glo hydrogen peroxide (ROS) assay; type: cell-based, human; details: Homo sapiens, read-out: ROS (HepG2) EC50
HepG2 cells [2] = assay: Intracellular ATP content (cell viability) assay; type: cell-based, human; details: Homo sapiens
[3] = test system: p53 (p53-bla HCT-116 cells); assay: p53 β-lactamase reporter gene assay; type: cell-based, human; details: 16 h incubation, mean±SD of three experiments
[4] = test system: Nrf2/ARE (ARE-bla HepG2 cells); assay: ARE β-lactamase reporter gene assay; type: cell-based, human; details: Homo sapiens, HepG2; 16 h incubation; mean±SD of three experiments; read-out: ARE (HepG2) EC50
[5] = test system: isolated rat liver mitochondria; assay: Oxygen consumption, Clark-type oxygen electrode; type: biochemical
[6] = test system: mitochondrial respiratory chain complex I; type: biochemical, rat
[7] = molecular target: T1, mitochondrial respiratory chain complex II (Rattus norvegicus, UniProt P21913+Q641Z9+Q6PCT8+Q920L2); assay: Respiratory chain complex II activity; type: biochemical; details: tested up to 100μM
T1 construct: Submitochondrial particles were prepared by subjecting the intact rat mitochondria, isolated as described above, to three successive freeze–thaw cycles; from tissue; host or cells: rat liver mitochondria (submitochondrial particles)

[8] = test system: mitochondrial respiratory chain complex III; type: biochemical, rat
[9] = test system: mitochondrial respiratory chain complex IV; type: biochemical, rat
[10] = test system: mitochondrial respiratory chain complex V; type: biochemical, rat
[11] = test system: HeLa cells expressing YFP-Parkin; assay: Parkin translocation assay; type: cell-based, human
rat primary hepatocytes [12] = test system: rat primary hepatocytes
HepG2 cells [13] = assay: cells; details: Homo sapiens
rat primary hepatocytes [14] = assay: MMP assay in rat primary hepatocytes; details: for IC50: Rattus norvegicus, Hepatocyte
HepG2 cells [15] = details: cited from earlier work
[16] = test system: Caenorhabditis elegans strain PE255; assay: In vivo C. elegans ATP status assay
[17] = test system: Caenorhabditis elegans (Bristol N2); assay: C. elegans larval development and growth assay
[18] = HepG2, 1 h, read-out: HepG2 IC50 Galactose (MMP)
[19] = HepG2, 1 h, read-out: HepG2 IC50 Glucose (MMP)
[20] = 1 h, read-out: Rat hepatocytes IC50 (MMP)

T1 sequence (Q920L2 35-656): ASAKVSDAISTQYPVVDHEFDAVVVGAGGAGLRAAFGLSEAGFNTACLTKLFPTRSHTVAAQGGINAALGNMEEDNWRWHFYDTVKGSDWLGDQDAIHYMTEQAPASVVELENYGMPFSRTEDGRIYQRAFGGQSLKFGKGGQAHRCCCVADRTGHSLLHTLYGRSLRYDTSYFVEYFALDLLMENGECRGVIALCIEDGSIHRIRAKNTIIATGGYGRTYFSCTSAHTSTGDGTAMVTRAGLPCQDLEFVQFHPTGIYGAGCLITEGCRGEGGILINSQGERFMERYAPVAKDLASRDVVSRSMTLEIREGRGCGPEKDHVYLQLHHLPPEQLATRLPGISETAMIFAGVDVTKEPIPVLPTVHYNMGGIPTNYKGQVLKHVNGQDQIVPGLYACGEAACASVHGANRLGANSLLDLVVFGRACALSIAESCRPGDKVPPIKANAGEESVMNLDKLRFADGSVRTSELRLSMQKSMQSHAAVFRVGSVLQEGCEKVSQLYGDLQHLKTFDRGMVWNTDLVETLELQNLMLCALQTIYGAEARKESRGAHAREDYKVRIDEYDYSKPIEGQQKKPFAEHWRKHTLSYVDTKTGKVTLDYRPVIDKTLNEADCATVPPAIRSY
T1 sequence (P21913 31-282): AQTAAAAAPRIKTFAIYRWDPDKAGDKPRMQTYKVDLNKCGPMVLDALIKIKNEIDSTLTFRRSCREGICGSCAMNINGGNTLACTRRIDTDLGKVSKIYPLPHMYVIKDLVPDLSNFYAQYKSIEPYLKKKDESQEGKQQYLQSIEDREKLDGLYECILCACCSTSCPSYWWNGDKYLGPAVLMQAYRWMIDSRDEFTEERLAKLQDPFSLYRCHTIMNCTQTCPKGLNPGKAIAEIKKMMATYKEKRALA
T1 sequence (Q641Z9 1-169): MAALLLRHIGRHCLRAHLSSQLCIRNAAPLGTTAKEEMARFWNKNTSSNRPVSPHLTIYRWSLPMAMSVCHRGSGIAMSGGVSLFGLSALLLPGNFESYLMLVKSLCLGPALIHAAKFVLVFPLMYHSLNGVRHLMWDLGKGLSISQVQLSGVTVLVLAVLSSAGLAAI
T1 sequence (Q6PCT8 57-159): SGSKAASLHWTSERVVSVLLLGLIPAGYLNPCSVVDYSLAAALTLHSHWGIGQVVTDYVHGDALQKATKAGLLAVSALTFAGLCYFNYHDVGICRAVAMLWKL

CCCCCC[C@H]1C(=O)O[C@H](C)[C@H](NC(=O)c2cccc(NC=O)c2O)C(=O)O[C@@H](C)[C@@H]1OC(=O)CC(C)C [Antimycin A, reference compound]
IC50 (hNSC; 1 h): 2.91 µM | EC50 (HepG2 cells [1]; HepG2, 2 h): 6.83 µM | IC50 (HepG2 cells [2]; HepG2, 40 h, read-out: ATP (HepG2, galactose) IC50): 0.05 µM | IC50 (HepG2 cells [2]; HepG2, 40 h, read-out: ATP (HepG2, glucose) IC50): 0.02 µM | EC50 ([3]; Homo sapiens): 0.31 ± 0.04 µM | EC50 [4]: 0.47 ± 0.42 µM | Potential Mechanism [5]: Inhibitor | effect on mitochondrial respiration (in words) [5]: significantly inhibited both glutamate/malate-driven respiration and succinate-driven respiration | I-ADP, % of control (O2 consumption rate) ([5]; 0.00128 µM): 101 (37.5) % of control | I-sub, % of control (O2 consumption rate) ([5]; 0.00128 µM): 104 (11.2) % of control | II-ADP, % of control (O2 consumption rate) ([5]; 0.00128 µM): 102 (64.0) % of control | II-sub, % of control (O2 consumption rate) ([5]; 0.00128 µM): 105 (19.5) % of control | I-ADP, % of control (O2 consumption rate) ([5]; 0.0064 µM): 90 (33.5) % of control | I-sub, % of control (O2 consumption rate) ([5]; 0.0064 µM): 93 (10.0) % of control | II-ADP, % of control (O2 consumption rate) ([5]; 0.0064 µM): 83 (52.2) % of control | II-sub, % of control (O2 consumption rate) ([5]; 0.0064 µM): 92 (17.1) % of control | I-ADP, % of control (O2 consumption rate) ([5]; 0.032 µM): 59 (22.1) % of control | I-sub, % of control (O2 consumption rate) ([5]; 0.032 µM): 86 (9.3) % of control | II-ADP, % of control (O2 consumption rate) ([5]; 0.032 µM): 39 (24.5) % of control | II-sub, % of control (O2 consumption rate) ([5]; 0.032 µM): 67 (12.4) % of control | I-ADP, % of control (O2 consumption rate) ([5]; 0.16 µM): 17 (6.4) % of control | I-sub, % of control (O2 consumption rate) ([5]; 0.16 µM): 53 (5.7) % of control | II-ADP, % of control (O2 consumption rate) ([5]; 0.16 µM): 10 (6.4) % of control | II-sub, % of control (O2 consumption rate) ([5]; 0.16 µM): 36 (6.7) % of control | I-ADP, % of control (O2 consumption rate) ([5]; 0.8 µM): 16 (6.1) % of control | I-sub, % of control (O2 consumption rate) ([5]; 0.8 µM): 63 (6.8) % of control | II-ADP, % of control (O2 consumption rate) ([5]; 0.8 µM): 10 (6.4) % of control | II-sub, % of control (O2 consumption rate) ([5]; 0.8 µM): 30 (5.6) % of control | I-ADP, % of control (O2 consumption rate) ([5]; 4 µM): 13 (4.8) % of control | I-sub, % of control (O2 consumption rate) ([5]; 4 µM): 51 (5.5) % of control | II-ADP, % of control (O2 consumption rate) ([5]; 4 µM): 12 (7.5) % of control | II-sub, % of control (O2 consumption rate) ([5]; 4 µM): 31 (5.7) % of control | I-ADP, % of control (O2 consumption rate) ([5]; 20 µM): 15 (5.7) % of control | I-sub, % of control (O2 consumption rate) ([5]; 20 µM): 54 (5.8) % of control | II-ADP, % of control (O2 consumption rate) ([5]; 20 µM): 9 (5.8) % of control | II-sub, % of control (O2 consumption rate) ([5]; 20 µM): 32 (6.0) % of control | I-ADP, % of control (O2 consumption rate) ([5]; 100 µM): 9 (4.8) % of control | I-sub, % of control (O2 consumption rate) ([5]; 100 µM): 26 (5.6) % of control | II-ADP, % of control (O2 consumption rate) ([5]; 100 µM): 7 (4.0) % of control | II-sub, % of control (O2 consumption rate) ([5]; 100 µM): 13 (4.6) % of control | Complex I % inhibition (activity call) [6]: Inactive | Complex II % inhibition (activity call) [7]: Inactive | inhibitory effect on Complex III at (concentration) [8]: 0.032 µM | Complex III % inhibition ([8]; at 0.032μM): 71.1±2.91 at 0.032μM % | Complex IV % inhibition (activity call) [9]: Inactive | Complex V % inhibition (activity call) [10]: Inactive | Parkin recruitment [11]: Active | Parkin translocation into mitochondria (in words) ([11]; 3 h): significantly increased Parkin translocation into mitochondria | Rat hepatocytes (efficacy) (MMP) (rat primary hepatocytes [12]): 2.65±1.08 ( −94.9±3.37 ) % | IC50 (HepG2 cells [13]; [18]): 0.25 µM | IC50 (HepG2 cells [13]; [19]): 2.79 µM | IC50 (rat primary hepatocytes [14]; [20]): 2.65 µM

NNc1nc(-c2ccc([N+](=O)[O-])cc2)cs1 [2-Hydrazino-4-(4-nitrophenyl)thiazole]
IC50 (hNSC; 1 h treatment, fresh re-sourced stocks, mean±SD of three experiments): 4.3 ± 1.42 µM | EC50 (HepG2 cells [1]; HepG2, 2 h treatment, mean±SD of three experiments): 15.4 ± 16.6 µM | IC50 (HepG2 cells [2]; HepG2, 5 mM glucose, 40 h treatment, mean±SD of three experiments, read-out: ATP (HepG2, glucose) IC50): 48.1 ± 24.3 µM | IC50 (HepG2 cells [2]; HepG2, 10 mM galactose, 40 h treatment, mean±SD of three experiments, read-out: ATP (HepG2, galactose) IC50): 35.5 ± 4.54 µM | p53 (HCT-116) EC50 [3]: Inactive | EC50 [4]: 9.83 ± 3.79 µM | Complex I % inhibition ([6]; at 100μM): 21.6±7.1 at 100μM % | Complex II % inhibition (activity call) [7]: Inactive | Complex III % inhibition (activity call) [8]: Inactive | Complex IV % inhibition (activity call) [9]: Inactive | Complex V % inhibition (activity call) [10]: Inactive | Parkin recruitment ([11]; HeLa cells stably expressing YFP-Parkin, treated for 2 h): Active | MMP assays efficacy (%) qHTS-HepG2 (HepG2 cells [15]): -106±1% | IC50 (HepG2 cells [15]; read-out: MMP assays IC50 (µM) qHTS-HepG2): 1.6 ± 0.29 µM | IC50 (HepG2 cells [13]; [18]): 14.2 ± 2.56 µM | IC50 (HepG2 cells [13]; [19]): 12.1 ± 1.39 µM | IC50 (HepG2 cells [13]; HepG2, read-out: MMP assays IC50 (µM) HepG2): 1.26 µM | Emax (HepG2 cells [13]; HepG2, read-out: MMP assays efficacy (%) HepG2): 97% | LUM: mean difference in luminescence (ATP content) relative to plate controls ([16]; 0.5 µM): -0.01284 | LUM: mean difference in luminescence (ATP content) relative to plate controls ([16]; 1 µM): -0.00711 | LUM: mean difference in luminescence (ATP content) relative to plate controls ([16]; 5 µM): 0.1253 | LUM: mean difference in luminescence (ATP content) relative to plate controls ([16]; 10 µM): -0.00409 | LUM: mean difference in luminescence (ATP content) relative to plate controls ([16]; 25 µM): 0.7526 | LUM: mean difference in luminescence (ATP content) relative to plate controls ([16]; 50 µM): 0.8462 | LUM: mean difference in luminescence (ATP content) relative to plate controls ([16]; 75 µM): 1.473 | LUM: mean difference in luminescence (ATP content) relative to plate controls ([16]; 100 µM): 1.784 | minimal effective concentration ([16]; Caenorhabditis elegans, read-out: LEC LUM: lowest effect concentration for luminescence, a measure of nematode ATP content): 50 µM | Rat hepatocytes (efficacy) (MMP) (rat primary hepatocytes [14]; % of positive control, mean±SD of three experiments): −73.9±11.0% | IC50 (rat primary hepatocytes [14]; [20]): 20.9 ± 11.3 µM | IC50 (rat primary hepatocytes [14]; read-out: MMP assays IC50 (µM) Rat Hepatocytes): 7.9 ± 5.75 µM | MMP assays efficacy (%) Rat Hepatocytes (rat primary hepatocytes [14]; rat hepatocytes, mean ± SD of three experiments): -89±18% | EXT: mean difference in nematode size relative to plate controls ([17]; 0.5 µM): 0.08621 | EXT: mean difference in nematode size relative to plate controls ([17]; 1 µM): 0.08886 | EXT: mean difference in nematode size relative to plate controls ([17]; 5 µM): 0.126 | EXT: mean difference in nematode size relative to plate controls ([17]; 10 µM): 0.2572 | EXT: mean difference in nematode size relative to plate controls ([17]; 25 µM): 0.3181 | EXT: mean difference in nematode size relative to plate controls ([17]; 50 µM): 1.067 | EXT: mean difference in nematode size relative to plate controls ([17]; 75 µM): 1.594 | EXT: mean difference in nematode size relative to plate controls ([17]; 100 µM): 1.403 | minimal effective concentration ([17]; Caenorhabditis elegans, read-out: LEC EXT: lowest effect concentration for extinction, a measure of nematode size): 25 µM
